“Also recorded” adds a separate entry of the source.
Assays:
[1] = system: tenascin-C; experiment: Tenascin-C immunostaining of mouse forepaw cryosections; format: in vivo; settings: RDEB mice, four weeks treatment, relative to untreated RDEB controls; P<0.001
Source text: FIG. 3 depicts images of tenascin-C immunostained cryosections of mouse forepaws. The cryosections were obtained from age-matched wild-type mice, untreated recessive dystrophic epidermolysis bullosa (RDEB) mice, and RDEB mice treated with angiotensin (1-7) for four weeks. Each top panel corresponds to cryosections of the walking pads of a mouse, and each bottom panel corresponds to sections of toes. Tenascin-C is present at low abundance in uninjured skin, and it increases in fibrotic skin. […] Tenascin-C staining was observed primarily just below the dermal-epidermal junction in angiotensin (1-7) treated mice, which corresponds to the initial site of injury in RDEB mice. Cells were counterstained with 4′,6-diamidino-2-phenylindole (DAPI), and the scale bar corresponds to 200 μm.
FIG. 4 is a graph depicting the quantification of the fluorescence intensity of cryosection images of mouse forepaws immunostained with an anti-tenascin-C antibody. […]
Immunostaining was performed on cryosections of mouse forepaws of wild-type mice, untreated RDEB mice, and RDEB mice treated with angiotensin (1-7) for four weeks. […] Tenascin-C immunostaining was visualized using fluorescence microscopy (FIG. 3). Immunostaining was quantified with ImageJ software on images obtained with identical microscope settings and exposure time. […]

[2] = system: α-SMA positive myofibroblasts; experiment: α-SMA immunostaining of mouse forepaw cryosections; format: in vivo; settings: RDEB mice, four weeks treatment, relative to untreated RDEB mice
Source text: (§1) FIG. 5 depicts images of α-SMA (top panel), fibronectin (middle panel), and CD11b (bottom panel) immunostained cryosections of mouse forepaws. The cryosections were obtained from age-matched wild-type mice, untreated recessive dystrophic epidermolysis bullosa (RDEB) mice, and RDEB mice treated with angiotensin (1-7) for four weeks. […] Cells were counterstained with 4′,6-diamidino-2-phenylindole (DAPI).
(§2) Cryosections of mouse forepaws were also immunostained for α-SMA (alpha smooth muscle actin), fibronectin, and CD11b. α-SMA is a myofibroblast cell marker, which correlates with fibrotic disease. Fibronectin correlates with dermal fibrosis. CD11b (integrin αM subunit) is a leukocyte marker, which is expressed by monocytes, granulocytes (e.g., neutrophils), macrophages, and natural killer cells.

[3] = system: Recessive dystrophic epidermolysis bullosa (RDEB) mice; experiment: Blistering of forepaws of RDEB mice; format: in vivo, mouse; settings: four weeks treatment, wild type controls lacked blistering
[4] = system: tenascin-C; experiment: Western blot of whole protein lysates of mouse forepaws: tenascin-C; format: in vivo; settings: RDEB mouse forepaw lysates, four weeks treatment, relative to untreated RDEB mice
Source text: (§3) FIG. 7 depicts tenascin-C, thrombospondin-1, pSMAD2/3, galectin 3, and β-tubulin Western blots of whole protein lysates of mouse forepaws. Samples were obtained from age-matched wild-type mice, untreated recessive dystrophic epidermolysis bullosa (RDEB) mice, and RDEB mice treated with angiotensin (1-7) for four weeks.
(§4) FIG. 8 is a graph depicting the quantification of Western blot bands immunostained with antibodies directed against tenascin-C, thrombospondin-1, pSMAD2/3, and galectin 3. Samples consisted of whole protein lysates of mouse forepaws obtained from age-matched wild-type mice, untreated recessive dystrophic epidermolysis bullosa (RDEB) mice, and RDEB mice treated with angiotensin (1-7) for four weeks. Samples were normalized against β-tubulin. […] Each bar corresponds to a mean value, and error bars correspond to standard error of the mean (SEM).
(§5) Whole protein lysates from mouse forepaws were analyzed by Western blotting with antibodies directed against tenascin-C, thrombospondin-1, pSMAD2/3, galectin 3, and β-tubulin (FIG. 7). Thrombospondin 1 can activate transforming growth factor beta (TGFβ) signaling, which is associated with fibrosis. TGFβ signals through an intracellular SMAD pathway, and thus, phosphorylated-SMAD (e.g., pSMAD2/3) correlates with TGFβ-associated fibrosis. […] Western blotting results were quantified by densitometry and normalized against β-tubulin.

[5] = system: Recessive dystrophic epidermolysis bullosa (RDEB) mice; experiment: Toe length and loss/fusion of digits in RDEB mice treated four weeks; format: in vivo, mouse
Description: FIGS. 1A-1B. Recessive dystrophic epidermolysis bullosa (RDEB) mice were treated with angiotensin (1-7) peptide for four weeks. FIG. 1A consists of images of the right forepaw of a RDEB mouse before and after treatment with angiotensin (1-7). […] FIG. 1B is a graph of the average toe length of RDEB mice treated with angiotensin (1-7) peptide for four weeks (“Tarix”) or a vehicle control (“Vehicle”) as a percentage of average toe length before treatment.
FIG. 2 is a graph of average toe length of recessive dystrophic epidermolysis bullosa (RDEB) mice treated with either angiotensin (1-7) peptide, losartan, or a vehicle control for four weeks as a percentage of average toe length before treatment.
Recessive dystrophic epidermolysis bullosa (RDEB) is caused by a mutation in the gene encoding type VII collagen. RDEB mice display marked fibrosis, which leads to deleterious phenotypes including the fibrosis-driven loss and fusion of digits over time (see, e.g., Nyström, A. et al., EMBO MOLECULAR MEDICINE 7(9):1211-28 (2015)).
RDEB mice were treated with angiotensin (1-7) for four weeks (nine mice) or left untreated (three mice). Three wild type mice served as controls.

[6] = system: fibronectin; experiment: Fibronectin immunostaining of mouse forepaw cryosections; format: in vivo; settings: RDEB mice, four weeks treatment, relative to untreated RDEB mice
Source text: as §1, §2

[7] = system: pSMAD2/3; experiment: Western blot of whole protein lysates of mouse forepaws: pSMAD2/3; format: in vivo; settings: RDEB mouse forepaw lysates, four weeks treatment, relative to untreated RDEB mice
Source text: as §3, §4, §5

[8] = system: galectin 3; experiment: Western blot of whole protein lysates of mouse forepaws: galectin 3; format: in vivo; settings: RDEB mouse forepaw lysates, four weeks treatment, relative to untreated RDEB mice
Source text: as §3, §4, §5

[9] = system: CD11b-positive inflammatory leukocytes; experiment: CD11b immunostaining of mouse forepaw cryosections, CD11b-positive cells counted with ImageJ; format: in vivo; settings: RDEB mice, four weeks treatment
Source text: as §1
FIG. 6 is a graph depicting the quantification of CD11b-positive cells per mm^2 in images of immunostained cryosections of mouse forepaws. The cryosections were obtained from age-matched wild-type mice, untreated recessive dystrophic epidermolysis bullosa (RDEB) mice, and RDEB mice treated with angiotensin (1-7) for four weeks. CD11b stains neutrophils and macrophages. […] Each bar corresponds to a mean value, and error bars correspond to standard error of the mean (SEM).
Cryosections of mouse forepaws were also immunostained for α-SMA (alpha smooth muscle actin), fibronectin, and CD11b. α-SMA is a myofibroblast cell marker, which correlates with fibrotic disease. Fibronectin correlates with dermal fibrosis. […]
The number of CD11b-positive cells per mm^2 was quantified using ImageJ software. […] Identical thresholds were applied to all images, the images were converted to binary images, and all particles >10 pixles^2 were automatically counted.

[10] = system: thrombospondin-1; experiment: Western blot of whole protein lysates of mouse forepaws: thrombospondin-1; format: in vivo; settings: RDEB mouse forepaw lysates, four weeks treatment, relative to untreated RDEB mice
Source text: as §3, §4, §5

[11] = system: Recessive dystrophic epidermolysis bullosa (RDEB) mice; settings: four weeks, results published by Nyström et al.; cited from earlier work

Asp^1-Arg^2-Val^3-Tyr^4-Ile^5-His^6-Pro^7 [angiotensin (1-7)]
tenascin-C immunostaining (fluorescence intensity) in forepaw dermis [1]: significant (P<0.001) reduction in tenascin-C staining; also recorded: significantly lowered the amount of tenascin-C staining; also recorded: significant reduction in tenascin-C immunostaining
α-SMA positive cells (myofibroblasts) in forepaw [2]: fewer α-SMA positive cells; also recorded: reduced the number of α-SMA positive myofibroblasts
blistering of forepaws [3]: displayed blistering
tenascin-C abundance, Western blot normalized against β-tubulin [4]: reduced tenascin-C
average toe length as a percentage of average toe length before treatment ([5]; relative to vehicle-treated RDEB controls (results published by Nyström et al.)): significant reduction in the decrease in toe length; also recorded: protected against RDEB-associated decreases in toe length
fibrosis-driven loss and fusion of digits ([5]; right forepaw, four weeks treatment): reduced the expression of this deleterious phenotype; also recorded: protected against RDEB-associated decreases in toe length and fusion of digits
dermal fibronectin immunostaining in forepaw [6]: less fibronectin immunostaining; also recorded: reduced
phosphorylated SMAD2/3 (pSMAD2/3) abundance, Western blot normalized against β-tubulin [7]: reduced abundance of phosphorylated SMAD2/3
galectin-3 abundance, Western blot normalized against β-tubulin [8]: reduced galectin-3
CD11b-positive cells in forepaw dermis ([9]; relative to untreated RDEB mice): fewer CD11b-positive cells; also recorded: reduced; also recorded: reduction in CD11b-positive cell density
number of CD11b-positive cells per mm^2 compared with wild type mice ([9]; versus age-matched wild type mice): about the same number of CD11b-positive cells per mm^2 as wild type mice
thrombospondin-1 abundance, Western blot normalized against β-tubulin [10]: reduced abundance of the TGFβ activator thrombospondin-1

CCCCc1nc(Cl)c(CO)n1Cc1ccc(-c2ccccc2-c2nn[nH]n2)cc1 [losartan]
average toe length as a percentage of average toe length before treatment (losartan) [11]: similar
